We go through 15 molecules from patent US6943181B2, “Use of substituted gamma-lactone compounds as pharmaceutical preparations” (Grunenthal GmbH, priority 2001, dated 2005).

The assay addresses T1, nitrogen monoxide synthase (NO synthase) (Rattus norvegicus, UniProt P29476).
T1 construct: the supernatant was then decanted off and frozen in portions; from tissue; host or cells: rat cerebellum (homogenate, 20,000 g supernatant)
Briefly: HTS-NOS assay (nitrogen monoxide synthase assay). It counts as biochemical. The conditions noted are these: compound at 10 μM; enzyme preparation from rat cerebella; [3H]-arginine substrate. The source says: This assay makes it possible to determine the percentage inhibition of NO synthase by a compound of the general formula I used according to the invention by measuring NOS activity on exposure to the compound. NO synthase is here mixed under suitable conditions together with radioactively labelled arginine and the particular compound of the general formula I. After termination of the NO formation reaction at a predetermined time, the quantity of unconverted arginine is directly or indirectly determined. […] This assay may be carried out at follows: • (a) Incubation of the NO synthase with labelled arginine as the substrate in a reaction vessel, • (b) Separation of the labelled arginine from the labelled citrulline optionally arising as a product of the enzymatic reaction at a time at which the concentration of citrulline is rising, • (c) Measurement of the quantity of arginine separated in each case.
Separation is performed by means of a filter plate membrane.
Radioactive arginine is used as the substrate in this HTS-NOS assay. Depending on the type of microtitre plate (MTP), the assay volume may be selected in the range between 25 μl and 250 μl. Depending on the enzyme source used, cofactors and coenzymes are added. The batches are incubated in this microtitre plate (assay MTP) according to step (a) at room temperature and, depending on the enzyme activity used (units), lasts between 5 and 60 minutes. On completion of incubation (step (a)), the plate is placed in a cell harvester, which is equipped with an MTP which has a cation exchange membrane as a filter bottom (filter MTP). All the batches from the assay MTP are transferred into this filter MTP and suction filtered through a cation exchange filter plate, a paper filter loaded with phosphate groups. The filter MTP is then washed with buffer or water. This procedure binds the remaining substrate arginine onto the cation exchanger, while the enzymatically formed radioactive citrulline is quantitatively eluted. Once the filter MTP has been dried and scintillation liquid added, the bound arginine can be counted in the scintillation counter. Low radioactivity indicates an uninhibited NOS reaction. An inhibited enzyme reaction means that the radioactive arginine has not been converted. This means that there is a high level of radioactivity on the filter.
• Arginine, L-[2,3,4-^3H]-monohydrochloride; item no. […] The pH value of the buffer was adjusted to 7.4 at 25° C. • Washing medium: H2O Enzyme Preparation
Rat cerebella were used as the starting tissue. The animals were stunned and killed, the brain tissue, the cerebellum, was dissected out, 1 ml of enzyme preparation buffer (4° C.) was added per cerebellum, and the tissue was disrupted for 1 min at 6000 rpm in a Polytron homogeniser. The mixture was then centrifuged at 4° C. for 15 min at 20,000 g, and the supernatant was then decanted off and frozen in portions at −80° C. (discarding the precipitate).
96-Well MTPs with a well capacity of ≦250 μl were used Pipetting sequence: see table 1:
Once the pipetting operation was complete, a lid was laid on top of this MTP (assay MTP). Incubation at 25° C. (room temperature (RT)) for 5-60 min, depending on the quantity and activity of the enzyme used.
The contents of the assay MTP were then transferred with the assistance of a 96 well cell harvester into a 96 well cation exchange MTP (filter MTP) and suction filtered. A single washing with […] of H2O (from a trough) was then performed.
The plate was then dried for 1 h at 60° C. in a drying cabinet. The bottom of the filter MTP was then carefully sealed from beneath with a “back seal”. 35 μl of scintillating material were then pipetted into each well. The top of the plate was also sealed with a “top seal”. After 1 hour's waiting time, the plate was assessed on the β-counter.
For the molecule `Cc1ccnc(NC2CC(C)(c3cc4ccccc4s3)OC2=O)c1` (stereo not drawn) [Example 30, 5-Benzo[b]thiophen-2-yl-5-methyl-3-(4-methyl-pyridin-2-ylamino)-dihydro-furan-2-one], the inhibition at 10 µM is 41%.

`Cc1ccnc(NC2CC(C)(c3cc4ccccc4o3)OC2=O)c1` (stereo not drawn) [Example 31, 5-Benzofuran-2-yl-5-methyl-3-(4-methyl-pyridin-2-ylamino)-dihydro-furan-2-one] displayed an inhibition at 10 µM of 44%.

Molecule `CC1(c2ccc3c(c2)OCO3)CC(Nc2n[nH]cc2C#N)C(=O)O1` (stereo not drawn) [Example 32, 3-(5-Benzo[1,3]dioxol-5-yl-5-methyl-2-oxo-tetrahydro-furan-3-ylamino)-1H-pyrazole-4-carbonitrile] yielded an inhibition at 10 µM of 41%.

On to `CCOC(=O)c1c[nH]nc1NC1CC(C)(c2ccc3c(c2)OCO3)OC1=O` (stereo not drawn) [Example 33, 3-(5-Benzo[1,3]dioxol-5-yl-5-methyl-2-oxo-tetrahydro-furan-3-ylamino)-1H-pyrazole-4-carboxylic acid ethyl ester], for which 10 µM produced 45% inhibition.

On to `CC1(c2ccc3c(c2)OCO3)CC(Nc2ncccc2[N+](=O)[O-])C(=O)O1` (stereo not drawn) [Example 34, 5-Benzo[1,3]dioxol-5-yl-5-methyl-3-(3-nitro-pyridin-2-ylamino)-dihydro-furan-2-one], for which the inhibition at 10 µM is 40%.

Molecule `Cc1cc(C)nc(NC2CC(C)(c3ccc4c(c3)CCCC4)OC2=O)c1` (stereo not drawn) [Example 35, 3-(4,6-Dimethyl-pyridin-2-ylamino)-5-methyl-5-(5,6,7,8-tetrahydro-naphthalen-2-yl)-dihydro-furan-2-one] came in with an inhibition at 10 µM of 42%.

In turn, `Cc1cc(C)nc(NC2CC(C)(c3ccc4ccccc4c3)OC2=O)c1` (stereo not drawn) [Example 36, 3-(4,6-Dimethyl-pyridin-2-ylamino)-5-methyl-5-naphthalen-2-yl-dihydro-furan-2-one] returned an inhibition at 10 µM of 65%.

Regarding `Cc1ccnc(NC2CC(C)(c3ccc4c(c3)OCO4)OC2=O)c1` (stereo not drawn) [Example 37, 5-Benzo[1,3]dioxol-5-yl-5-methyl-3-(4-methyl-pyridin-2-ylamino)-dihydro-furan-2-one], at 10 µM the inhibition was 50%.

Consider `Cc1ccnc(NC2CC(C)(c3ccc4c(c3)CCCC4)OC2=O)c1` (stereo not drawn) [Example 38, 5-Methyl-3-(4-methyl-pyridin-2-ylamino)-5-(5,6,7,8-tetrahydro-naphthalen-2-yl)-dihydro-furan-2-one], for which the inhibition at 10 µM stood at 55%.

`Cc1ccc(NC2CC(C)(c3ccc4c(c3)OCO4)OC2=O)nc1` (stereo not drawn) [Example 39, 5-Benzo[1,3]dioxol-5-yl-5-methyl-3-(5-methyl-pyridin-2-ylamino)-dihydro-furan-2-one]: the inhibition at 10 µM is 44%.

On to `Cc1cccc(NC2CC(C)(c3ccc4c(c3)OCO4)OC2=O)n1` (stereo not drawn) [Example 40, 5-Benzo[1,3]dioxol-5-yl-5-methyl-3-(6-methyl-pyridin-2-ylamino)-dihydro-furan-2-one], for which the inhibition at 10 µM was 53%.

`CC1(c2ccc3c(c2)CCCC3)CC(Nc2ncc(Br)cc2[N+](=O)[O-])C(=O)O1` (stereo not drawn) [Example 41, 3-(5-Bromo-3-nitro-pyridin-2-ylamino)-5-methyl-5-(5,6,7,8-tetrahydro-naphthalen-2-yl)-dihydro-furan-2-one] showed an inhibition at 10 µM of 53%.

As for `CC(C)C1(c2ccccc2)CC(Nc2ncc(Br)cc2[N+](=O)[O-])C(=O)O1` (stereo not drawn) [Example 42, 3-(5-Bromo-3-nitro-pyridin-2-ylamino)-5-isopropyl-5-phenyl-dihydro-furan-2-one], the inhibition at 10 µM stood at 41%.

In the case of `CC(C)C1(c2ccccc2)CC(Nc2ccc([N+](=O)[O-])cn2)C(=O)O1` (stereo not drawn) [Example 43, 5-Isopropyl-3-(5-nitro-pyridin-2-ylamino)-5-phenyl-dihydro-furan-2-one], the inhibition at 10 µM turned out to be 45%.

Take `CC1(c2ccc3ccccc3c2)CC(Nc2ccc([N+](=O)[O-])cn2)C(=O)O1` (stereo not drawn) [Example 44, 5-Methyl-5-naphthalen-2-yl-3-(5-nitro-pyridin-2-ylamino)-dihydro-furan-2-one]: 10 µM produced 47% inhibition.
